Results on three compounds are retold here after paper PMC10026764, “Overcoming the imatinib-resistant BCR-ABL mutants with new ureidobenzothiazole chemotypes endowed with potent and broad-spectrum anticancer activity” (Journal of Enzyme Inhibition and Medicinal Chemistry, 2023).

Structures are written as SMILES. Read-outs that look alike come from different tables or passages of the source.

A word on the IC50: it is the concentration that gives 50% inhibition. The GI50 is the concentration that inhibits growth by half.

One assay addresses ABL^F317I (Homo sapiens, UniProt P00519, F317I). The assay is described as follows: In vitro enzymatic activity, imatinib-resistant mutant panel. Format: biochemical.
Another assay deals with DDR1 (Homo sapiens, UniProt Q08345). The assay is described as follows: Kinase selectivity test against DDR1. The assay is classed as biochemical. How it is done:
On the other hand, to gain certain insights about the kinase selectivity of this array of ureidobenzothiazoles, compounds 2a and 2b were tested against DDR1 (Figure 4). Discoidin domain receptors (DDR1/2) are transmembrane receptor tyrosine kinases (RTKs), activated by fibrillar collagens. DDR1/2 and BCR-ABL share almost 61% sequence similarities in their ATP binding domains. […] This observation points out the merit of these ureidobenzothiazoles over the known BCR-ABL inhibitors in achieving exceptional selectivity towards BCR-ABL.

The next assay concerns the target ABL^H396P (Homo sapiens, UniProt P00519, H396P). Briefly: In vitro enzymatic activity, imatinib-resistant mutant panel. Format: biochemical.
A further assay has as its target ABL^E255K (Homo sapiens, UniProt P00519, E255K). Described as above.
Assay [1] concerns EKVX. The assay is described as follows: NCI-60 five-dose SRB assay. The assay is classed as cell-based. The following applies: Homo sapiens, non-small cell lung cancer. (In general: Sulforhodamine B stains cellular protein and so reports cell mass.)
The next assay has as its system CAKI-1. Briefly: NCI-60 five-dose SRB assay. Format: cell-based. The settings on record: Homo sapiens; CAKI-1, renal cancer.
Assay [2] has as its system HOP-62. The assay is described as follows: NCI-60 five-dose SRB assay. Format: cell-based. The settings on record: Homo sapiens; HOP-62, non-small cell lung cancer.
The subject of assay [3] is HOP-62. The arrangement: method as in earlier work. The settings on record: imatinib mesylate NSC 743414, NCI data; cited from earlier work.
The next assay relates to M14. The arrangement: method as in earlier work. The following applies: imatinib mesylate NSC 743414, NCI data; cited from earlier work.
A further assay has as its system BT-549. Also noted: method as in earlier work. The settings on record: imatinib mesylate NSC 743414, NCI data; cited from earlier work.
A further assay has as its system NCI-H460. Also noted: method as in earlier work. The settings on record: imatinib mesylate NSC 743414, NCI data; cited from earlier work.
The next assay relates to MCF7. The arrangement: method as in earlier work. The following applies: imatinib mesylate NSC 743414, NCI data; cited from earlier work.
In assay [4] the test system is EKVX. Also noted: method as in earlier work. The following applies: imatinib mesylate NSC 743414, NCI data; cited from earlier work.
Another assay concerns NCI/ADR-RES. The arrangement: method as in earlier work. The settings on record: imatinib mesylate NSC 743414, NCI data; cited from earlier work.
The subject of a further assay is HCC-2998. Also noted: method as in earlier work. The following applies: imatinib mesylate NSC 743414, NCI data; cited from earlier work.
Another assay concerns KM12. The arrangement: method as in earlier work. The settings on record: imatinib mesylate NSC 743414, NCI data; cited from earlier work.
The subject of another assay is 786-0. The arrangement: method as in earlier work. The following applies: imatinib mesylate NSC 743414, NCI data; cited from earlier work.
Another assay deals with MOLT-4. The arrangement: method as in earlier work. The following applies: imatinib mesylate NSC 743414, NCI data; cited from earlier work.
Another assay has as its system RPMI-8226. The arrangement: method as in earlier work. The following applies: imatinib mesylate NSC 743414, NCI data; cited from earlier work.
A further assay deals with SR. Also noted: method as in earlier work. The settings on record: imatinib mesylate NSC 743414, NCI data; cited from earlier work.
In the next assay the test system is U251. The arrangement: method as in earlier work. The following applies: imatinib mesylate NSC 743414, NCI data; cited from earlier work.
In the next assay the test system is OVCAR-5. Also noted: method as in earlier work. The following applies: imatinib mesylate NSC 743414, NCI data; cited from earlier work.
Another assay concerns DU-145. The arrangement: method as in earlier work. The following applies: imatinib mesylate NSC 743414, NCI data; cited from earlier work.
The test system of a further assay is HCT-116. The arrangement: method as in earlier work. The following applies: imatinib mesylate NSC 743414, NCI data; cited from earlier work.
The test system of the next assay is SK-MEL-28. Also noted: method as in earlier work. The following applies: imatinib mesylate NSC 743414, NCI data; cited from earlier work.
In the next assay the test system is TK-10. The arrangement: method as in earlier work. The following applies: imatinib mesylate NSC 743414, NCI data; cited from earlier work.
The next assay concerns NCI-H522. Also noted: method as in earlier work. The settings on record: imatinib mesylate NSC 743414, NCI data; cited from earlier work.
The test system of a further assay is MDA-MB-435. The arrangement: method as in earlier work. The following applies: imatinib mesylate NSC 743414, NCI data; cited from earlier work.
The next assay deals with HT29. Also noted: method as in earlier work. The following applies: imatinib mesylate NSC 743414, NCI data; cited from earlier work.
The next assay has as its system HOP-92. The arrangement: method as in earlier work. The settings on record: imatinib mesylate NSC 743414, NCI data; cited from earlier work.
The next assay concerns RXF 393. The arrangement: method as in earlier work. The settings on record: imatinib mesylate NSC 743414, NCI data; cited from earlier work.
The next assay concerns HL-60(TB). Also noted: method as in earlier work. The settings on record: imatinib mesylate NSC 743414, NCI data; cited from earlier work.
A further assay concerns HS 578T. The arrangement: method as in earlier work. The settings on record: imatinib mesylate NSC 743414, NCI data; cited from earlier work.
For another assay, the system named is NCI-H23. Also noted: method as in earlier work. The following applies: imatinib mesylate NSC 743414, NCI data; cited from earlier work.
A further assay concerns HCT-15. Also noted: method as in earlier work. The settings on record: imatinib mesylate NSC 743414, NCI data; cited from earlier work.
The next assay deals with SK-OV-3. Also noted: method as in earlier work. The following applies: imatinib mesylate NSC 743414, NCI data; cited from earlier work.
In another assay the test system is SK-MEL-5. Also noted: method as in earlier work. The following applies: imatinib mesylate NSC 743414, NCI data; cited from earlier work.
The test system of another assay is MALME-3M. Also noted: method as in earlier work. The settings on record: imatinib mesylate NSC 743414, NCI data; cited from earlier work.
The next assay has as its system K-562. The arrangement: method as in earlier work. The settings on record: imatinib mesylate NSC 743414, NCI data; cited from earlier work.
Another assay deals with SW-620. The arrangement: method as in earlier work. The following applies: imatinib mesylate NSC 743414, NCI data; cited from earlier work.
A further assay relates to SF-539. The arrangement: method as in earlier work. The following applies: imatinib mesylate NSC 743414, NCI data; cited from earlier work.
For the next assay, the system named is UACC-62. Also noted: method as in earlier work. The settings on record: imatinib mesylate NSC 743414, NCI data; cited from earlier work.
The test system of another assay is OVCAR-4. The arrangement: method as in earlier work. The settings on record: imatinib mesylate NSC 743414, NCI data; cited from earlier work.
A further assay has as its system MDA-MB-231. The arrangement: method as in earlier work. The settings on record: imatinib mesylate NSC 743414, NCI data; cited from earlier work.
The next assay deals with SNB-19. The arrangement: method as in earlier work. The following applies: imatinib mesylate NSC 743414, NCI data; cited from earlier work.

DDR1, sequence (Q08345 19-913, species assumed): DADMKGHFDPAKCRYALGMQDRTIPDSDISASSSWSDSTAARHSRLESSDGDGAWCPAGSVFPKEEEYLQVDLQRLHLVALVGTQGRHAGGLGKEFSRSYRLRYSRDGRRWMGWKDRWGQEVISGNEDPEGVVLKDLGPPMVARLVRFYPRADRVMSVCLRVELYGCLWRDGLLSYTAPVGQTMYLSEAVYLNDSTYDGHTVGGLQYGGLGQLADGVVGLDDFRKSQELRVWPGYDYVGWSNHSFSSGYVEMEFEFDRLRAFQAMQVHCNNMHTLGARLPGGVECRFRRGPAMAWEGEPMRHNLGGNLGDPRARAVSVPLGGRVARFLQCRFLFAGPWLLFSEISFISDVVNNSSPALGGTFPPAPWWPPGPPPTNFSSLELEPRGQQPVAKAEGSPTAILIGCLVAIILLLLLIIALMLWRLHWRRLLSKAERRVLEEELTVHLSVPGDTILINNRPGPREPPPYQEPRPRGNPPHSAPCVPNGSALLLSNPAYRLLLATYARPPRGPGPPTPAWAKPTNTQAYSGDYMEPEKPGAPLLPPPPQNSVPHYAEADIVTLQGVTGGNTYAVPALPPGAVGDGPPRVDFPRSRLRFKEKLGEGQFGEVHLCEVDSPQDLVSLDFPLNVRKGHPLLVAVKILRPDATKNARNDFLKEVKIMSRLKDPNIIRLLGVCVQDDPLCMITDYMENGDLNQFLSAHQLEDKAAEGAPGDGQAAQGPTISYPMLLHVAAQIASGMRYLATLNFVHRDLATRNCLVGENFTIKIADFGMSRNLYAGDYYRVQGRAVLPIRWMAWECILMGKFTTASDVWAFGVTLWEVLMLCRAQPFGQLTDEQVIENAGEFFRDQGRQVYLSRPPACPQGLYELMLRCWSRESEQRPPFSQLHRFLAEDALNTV

In the case of `CCN1CCN(c2ccc(NC(=O)Nc3nc4ccc(-c5ccccc5OC)cc4s3)cc2)CC1` [Compound 2b], the IC50 against ABL^F317I was 0.00516 µM; at DDR1, 0.199 µM; against ABL^H396P it was less than 0.001 µM; on ABL^E255K, 0.00247 µM. In addition, in the assay on EKVX [1], the GI50 was 1.51 µM.

In the case of `COc1ccccc1-c1ccc2nc(NC(=O)Nc3cc(C(F)(F)F)cc(C(F)(F)F)c3)sc2c1` [Compound 2e], the GI50 stood at 2.33 µM in the assay on CAKI-1 and 2.1 µM in the assay with HOP-62 [2].

Regarding `Cc1ccc(NC(=O)c2ccc(CN3CCN(C)CC3)cc2)cc1Nc1nccc(-c2cccnc2)n1` [Imatinib], the GI50 is 21.5 µM in the assay with HOP-62 [3]; 19.3 µM in the assay with M14; 16.1 µM with BT-549; 16.2 µM in the assay on NCI-H460; 18.2 µM in the assay on MCF7; 26.2 µM in the assay with EKVX [4]. Besides, the GI50 is 23 µM in the assay on NCI/ADR-RES; 21.2 µM in the assay on HCC-2998; 18.8 µM in the assay on KM12; 16 µM in the assay on 786-0; 5.13 µM in the assay with MOLT-4; 6.05 µM with RPMI-8226. Further, the 50% growth inhibitory concentration (GI50) in the assay on SR is 7.14 µM; with U251, 18 µM; in the assay with OVCAR-5, 0.58 µM; in the assay on DU-145 it was 18.8 µM; with HCT-116, 12.6 µM; in the assay with SK-MEL-28 it was 14.6 µM. The concentration for 50% growth inhibition (GI50) with TK-10 was 26.9 µM; with NCI-H522, 16.4 µM; with MDA-MB-435, 17.9 µM; with HT29, 3.97 µM; with HOP-92 it was 13.3 µM; in the assay on RXF 393, 15.1 µM. Besides, the GI50 in the assay with HL-60(TB) is 13.5 µM; in the assay with HS 578T it was 14.6 µM; in the assay with NCI-H23 it was 15 µM; in the assay on HCT-15 it was 19.9 µM; in the assay with SK-OV-3, 28.9 µM; with SK-MEL-5, 12.1 µM. Moreover, the GI50 is 16.3 µM in the assay on MALME-3M; 0.02 µM in the assay on K-562; 23.4 µM in the assay with SW-620; 10.6 µM in the assay with SF-539; 19 µM in the assay with UACC-62; 20 µM in the assay with OVCAR-4. In addition, the concentration for 50% growth inhibition (GI50) in the assay with MDA-MB-231 was 18.7 µM; in the assay on SNB-19, 38.6 µM.
